According to patent US10028960B2, “Pyrimidine compounds as JAK kinase inhibitors” (THERAVANCE BIOPHARMA R&D IP, LLC, priority 2016, dated 2018):
pKi: −log10 of the molar value. Read-outs that look alike come from different tables or passages of the source.

Legend:
[1] = test system: IL-13 induced STAT6 phosphorylation in HT-29 human colorectal adenocarcinoma cells; assay: Cellular JAK potency assay: inhibition of IL-13 induced STAT6 phosphorylation; type: cell-based; conditions: IL-13 induced STAT6 phosphorylation, HT-29 cells; for IC50: Homo sapiens, read-out: HT-29 (pIC50) (converted)
Procedure: The potency of test compounds for inhibition of the JAK-dependent cytokine interleuken-13 (IL-13) was assessed by measuring IL-13 (IL-13, R&D Systems) induced STAT6 phosphorylation in HT-29 human colorectal adenocarcinoma cells (ATCC).
The anti-STAT6 antibody (Cell Signaling Technologies) was conjugated to AlphaScreen acceptor beads (Perkin Elmer), while the anti-pSTAT6 (pTyr641) antibody (Cell Signaling Technologies) was biotinylated using EZ-Link Sulfo-NHS-Biotin (Thermo Scientific).
HT-29 cells were grown at 37° C. in a 5% CO2 humidified incubator in McCoy's 5a Modified medium (ATCC) supplemented with 10% FBS (Hyclone), 100 U/mL penicillin, 100 μg/mL streptomycin (Life Technologies), and 2 mM GlutaMAX (Life Technologies). On day 1 of the assay, cells were seeded at a 7,500 cells/well density in white poly-D-lysine-coated 384-well plates (Corning) with 25 μL medium, and were allowed to adhere overnight in the incubator. On day 2 of the assay, the medium was removed and replaced with 12 μL of assay buffer (Hank's Balanced Salt Solution/HBSS, 25 mM HEPES, and 1 mg/ml bovine serum albumin/BSA) containing dose-responses of test compounds. Compounds were serially diluted in DMSO and then diluted another 1000-fold in media to bring the final DMSO concentration to 0.1%. Cells were incubated with test compounds at 37° C. for 1 h, and followed by the addition of 12 μL of pre-warmed IL-13 (12 ng/ml in assay buffer) for stimulation. After incubating at 37° C. for 30 min, the assay buffer (containing compound and IL-13) was removed, and 10 μL of cell lysis buffer (25 mM HEPES, 0.1% SDS, 1% NP-40, 5 mM MgCl2, 1.3 mM EDTA, 1 mM EGTA, and supplement with Complete Ultra mini protease inhibitors and PhosSTOP from Roche Diagnostics). The plates were shaken at ambient temperature for 30 min before the addition of detection reagents. A mixture of biotin-anti-pSTAT6 and anti-STAT6 conjugated acceptor beads was added first and incubated at ambient temperature for 2 h, followed by the addition of streptavidin conjugated donor beads (Perkin Elmer). After a minimum of 2 h incubation, the assay plates were read on the EnVision plate reader.
Results were expressed as the negative logarithm of the IC50 value, pIC50.

JAK3 = JAK3 (Homo sapiens (Human), UniProt P52333); assay: LanthaScreen JAK biochemical assay, JAK3; conditions: for Ki: read-out: JAK 3 (pKi) (converted)
Procedure: (§1) A panel of four LanthaScreen JAK biochemical assays (JAK1, 2, 3 and Tyk2) were carried in a common kinase reaction buffer (50 mM HEPES, pH 7.5, 0.01% Brij-35, 10 mM MgCl2, and 1 mM EGTA). Recombinant GST-tagged JAK enzymes and a GFP-tagged STAT1 peptide substrate were obtained from Life Technologies.

JAK2 = JAK2 (Homo sapiens (Human), UniProt O60674); assay: LanthaScreen JAK biochemical assay, JAK2; conditions: for Ki: read-out: JAK 2 (pKi) (converted)
Procedure: as §1

Tyk2 = Tyk2 (Homo sapiens (Human), UniProt P29597); assay: LanthaScreen JAK biochemical assay, Tyk2; conditions: for Ki: read-out: Tyk 2 (pKi) (converted)
Procedure: as §1

JAK1 = JAK1 (Homo sapiens (Human), UniProt P23458); assay: LanthaScreen JAK biochemical assay, JAK1; conditions: for Ki: read-out: JAK 1 (pKi) (converted)
Procedure: as §1

[2] = Determination of absorption in cannulated rats; type: in vivo, Sprague Dawley rats; conditions: rat, oral, portal vein
Procedure: Oral bioavailability (F %), fraction absorbed (Fa %) and fraction escaping hepatic clearance (Fh %) were determined in Sprague Dawley rats from the following two studies:
(1) Pharmacokinetics in rats following an IV dose of test compound: Following IV dosing, plasma samples were typically collected from 0-6 hr. Drug levels were determined using an LC-MS-MS method. The resulting drug levels were used to compute the IV pharmacokinetic parameters: AUC IV and Dose IV.
(2) Rats that have been cannulated in their portal vein (PV) and also in their jugular vein (JV) were dosed orally with test compound. Following oral dosing, plasma samples were typically collected from 0-6 hr from both the portal vein and the jugular vein. Drug levels were determined using an LC-MS-MS method. The resulting drug levels were used to compute the following pharmacokinetic parameters: AUC PO PV, AUC PO JV, and Dose PO.
Using data derived from the above studies, the oral bioavailability F %, and the quantities Fa % and Fh % were calculated from the following formulas: F %=(AUC PO JV/AUC IV)*(Dose IV/Dose PO)*100 Fa %=(AUC PO PV/AUC IV)*(Dose IV/Dose PO)*100 Fh %=AUC PO JV/AUC PO PV
AUC PO JV=Area under the curve following oral dose and plasma collected from the jugular vein
AUC PO PV=Area under the curve following oral dose and plasma collected from the portal vein
AUC IV=Area under the curve following an intravenous dose
Dose IV=Intravenous Dose in mg/kg
Dose PO=Oral Dose in mg/kg

Sequence of JAK1 (P23458 whole entry): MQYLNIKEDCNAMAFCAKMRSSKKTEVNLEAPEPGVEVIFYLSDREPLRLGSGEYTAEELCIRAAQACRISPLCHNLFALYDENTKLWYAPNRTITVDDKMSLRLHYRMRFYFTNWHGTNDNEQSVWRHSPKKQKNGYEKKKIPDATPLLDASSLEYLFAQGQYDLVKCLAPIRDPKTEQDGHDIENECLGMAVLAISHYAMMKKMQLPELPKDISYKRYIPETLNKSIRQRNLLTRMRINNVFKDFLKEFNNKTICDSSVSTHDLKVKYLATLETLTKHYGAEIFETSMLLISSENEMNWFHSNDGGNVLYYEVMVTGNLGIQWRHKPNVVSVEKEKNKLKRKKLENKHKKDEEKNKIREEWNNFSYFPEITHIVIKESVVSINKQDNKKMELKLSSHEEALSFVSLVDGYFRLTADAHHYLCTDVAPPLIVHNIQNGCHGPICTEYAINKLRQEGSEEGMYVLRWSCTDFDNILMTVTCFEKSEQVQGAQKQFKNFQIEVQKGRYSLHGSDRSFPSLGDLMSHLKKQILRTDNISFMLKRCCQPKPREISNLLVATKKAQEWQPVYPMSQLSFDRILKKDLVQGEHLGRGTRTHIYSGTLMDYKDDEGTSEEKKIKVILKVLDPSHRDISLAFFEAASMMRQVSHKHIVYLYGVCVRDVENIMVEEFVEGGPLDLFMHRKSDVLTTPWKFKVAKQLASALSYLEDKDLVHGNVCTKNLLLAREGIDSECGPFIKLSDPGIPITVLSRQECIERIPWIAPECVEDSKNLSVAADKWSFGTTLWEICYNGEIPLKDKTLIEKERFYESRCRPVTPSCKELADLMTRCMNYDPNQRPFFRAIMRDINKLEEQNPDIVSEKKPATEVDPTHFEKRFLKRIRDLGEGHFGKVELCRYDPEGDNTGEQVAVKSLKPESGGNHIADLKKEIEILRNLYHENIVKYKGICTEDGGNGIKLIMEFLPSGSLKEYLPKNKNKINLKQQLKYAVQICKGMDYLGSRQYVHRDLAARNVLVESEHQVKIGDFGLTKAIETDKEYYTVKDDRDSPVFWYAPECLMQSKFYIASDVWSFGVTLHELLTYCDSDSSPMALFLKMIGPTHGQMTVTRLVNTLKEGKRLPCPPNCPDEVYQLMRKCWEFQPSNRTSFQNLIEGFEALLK
Sequence of JAK2 (O60674 whole entry): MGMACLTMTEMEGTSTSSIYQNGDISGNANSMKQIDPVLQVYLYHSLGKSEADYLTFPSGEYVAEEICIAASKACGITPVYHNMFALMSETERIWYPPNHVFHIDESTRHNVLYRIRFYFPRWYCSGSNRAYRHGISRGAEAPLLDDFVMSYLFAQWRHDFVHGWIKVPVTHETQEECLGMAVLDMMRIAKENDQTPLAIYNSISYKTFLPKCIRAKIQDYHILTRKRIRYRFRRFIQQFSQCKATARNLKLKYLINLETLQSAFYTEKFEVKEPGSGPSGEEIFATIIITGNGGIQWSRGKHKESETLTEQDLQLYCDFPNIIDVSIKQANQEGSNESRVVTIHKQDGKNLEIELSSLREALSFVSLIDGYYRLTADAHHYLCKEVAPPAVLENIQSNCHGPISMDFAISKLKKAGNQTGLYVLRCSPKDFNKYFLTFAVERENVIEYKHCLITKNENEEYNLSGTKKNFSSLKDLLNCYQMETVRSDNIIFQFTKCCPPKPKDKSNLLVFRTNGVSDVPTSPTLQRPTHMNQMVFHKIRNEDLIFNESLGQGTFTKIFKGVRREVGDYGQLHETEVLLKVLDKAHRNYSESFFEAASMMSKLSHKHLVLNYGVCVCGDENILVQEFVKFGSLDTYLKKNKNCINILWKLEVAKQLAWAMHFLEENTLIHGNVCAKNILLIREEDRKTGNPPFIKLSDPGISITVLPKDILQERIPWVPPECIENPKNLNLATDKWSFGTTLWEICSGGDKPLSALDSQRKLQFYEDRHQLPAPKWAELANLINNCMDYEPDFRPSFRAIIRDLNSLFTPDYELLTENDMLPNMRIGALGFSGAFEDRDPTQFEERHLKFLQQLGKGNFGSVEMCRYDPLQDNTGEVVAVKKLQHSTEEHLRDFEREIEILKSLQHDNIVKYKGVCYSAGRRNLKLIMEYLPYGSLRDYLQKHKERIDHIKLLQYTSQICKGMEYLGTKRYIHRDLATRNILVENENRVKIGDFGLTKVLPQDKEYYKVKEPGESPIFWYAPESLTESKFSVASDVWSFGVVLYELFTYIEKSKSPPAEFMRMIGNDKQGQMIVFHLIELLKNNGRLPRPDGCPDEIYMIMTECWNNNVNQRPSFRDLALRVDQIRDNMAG
Sequence of JAK3 (P52333 whole entry): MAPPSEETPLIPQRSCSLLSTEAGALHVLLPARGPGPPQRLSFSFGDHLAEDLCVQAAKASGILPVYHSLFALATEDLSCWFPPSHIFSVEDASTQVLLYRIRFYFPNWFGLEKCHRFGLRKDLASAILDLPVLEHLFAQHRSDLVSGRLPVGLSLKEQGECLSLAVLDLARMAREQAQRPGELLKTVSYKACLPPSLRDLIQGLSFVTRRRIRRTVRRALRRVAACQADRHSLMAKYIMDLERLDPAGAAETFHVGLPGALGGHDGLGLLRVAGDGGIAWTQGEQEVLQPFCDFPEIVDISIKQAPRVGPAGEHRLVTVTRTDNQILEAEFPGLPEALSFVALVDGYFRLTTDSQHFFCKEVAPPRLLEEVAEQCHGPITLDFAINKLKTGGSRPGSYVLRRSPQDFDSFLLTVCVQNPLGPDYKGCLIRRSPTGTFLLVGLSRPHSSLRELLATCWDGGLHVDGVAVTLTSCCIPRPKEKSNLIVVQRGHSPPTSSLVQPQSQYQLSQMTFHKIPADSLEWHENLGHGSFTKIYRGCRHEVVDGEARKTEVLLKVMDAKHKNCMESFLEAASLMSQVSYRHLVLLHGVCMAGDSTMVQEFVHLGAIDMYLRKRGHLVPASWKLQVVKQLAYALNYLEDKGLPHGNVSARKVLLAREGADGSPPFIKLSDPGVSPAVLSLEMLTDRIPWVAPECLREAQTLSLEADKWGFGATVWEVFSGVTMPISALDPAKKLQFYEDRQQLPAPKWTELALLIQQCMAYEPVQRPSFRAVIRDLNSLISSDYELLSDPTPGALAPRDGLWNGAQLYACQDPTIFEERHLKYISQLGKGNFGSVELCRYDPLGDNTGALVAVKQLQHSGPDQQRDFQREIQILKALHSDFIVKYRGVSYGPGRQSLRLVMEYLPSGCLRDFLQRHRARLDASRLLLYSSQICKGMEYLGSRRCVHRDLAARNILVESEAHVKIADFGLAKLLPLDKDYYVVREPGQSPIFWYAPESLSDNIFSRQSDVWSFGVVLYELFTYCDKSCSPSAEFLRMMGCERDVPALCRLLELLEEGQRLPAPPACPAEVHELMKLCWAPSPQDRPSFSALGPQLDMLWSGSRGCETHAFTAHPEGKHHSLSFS
Sequence of Tyk2 (P29597 whole entry): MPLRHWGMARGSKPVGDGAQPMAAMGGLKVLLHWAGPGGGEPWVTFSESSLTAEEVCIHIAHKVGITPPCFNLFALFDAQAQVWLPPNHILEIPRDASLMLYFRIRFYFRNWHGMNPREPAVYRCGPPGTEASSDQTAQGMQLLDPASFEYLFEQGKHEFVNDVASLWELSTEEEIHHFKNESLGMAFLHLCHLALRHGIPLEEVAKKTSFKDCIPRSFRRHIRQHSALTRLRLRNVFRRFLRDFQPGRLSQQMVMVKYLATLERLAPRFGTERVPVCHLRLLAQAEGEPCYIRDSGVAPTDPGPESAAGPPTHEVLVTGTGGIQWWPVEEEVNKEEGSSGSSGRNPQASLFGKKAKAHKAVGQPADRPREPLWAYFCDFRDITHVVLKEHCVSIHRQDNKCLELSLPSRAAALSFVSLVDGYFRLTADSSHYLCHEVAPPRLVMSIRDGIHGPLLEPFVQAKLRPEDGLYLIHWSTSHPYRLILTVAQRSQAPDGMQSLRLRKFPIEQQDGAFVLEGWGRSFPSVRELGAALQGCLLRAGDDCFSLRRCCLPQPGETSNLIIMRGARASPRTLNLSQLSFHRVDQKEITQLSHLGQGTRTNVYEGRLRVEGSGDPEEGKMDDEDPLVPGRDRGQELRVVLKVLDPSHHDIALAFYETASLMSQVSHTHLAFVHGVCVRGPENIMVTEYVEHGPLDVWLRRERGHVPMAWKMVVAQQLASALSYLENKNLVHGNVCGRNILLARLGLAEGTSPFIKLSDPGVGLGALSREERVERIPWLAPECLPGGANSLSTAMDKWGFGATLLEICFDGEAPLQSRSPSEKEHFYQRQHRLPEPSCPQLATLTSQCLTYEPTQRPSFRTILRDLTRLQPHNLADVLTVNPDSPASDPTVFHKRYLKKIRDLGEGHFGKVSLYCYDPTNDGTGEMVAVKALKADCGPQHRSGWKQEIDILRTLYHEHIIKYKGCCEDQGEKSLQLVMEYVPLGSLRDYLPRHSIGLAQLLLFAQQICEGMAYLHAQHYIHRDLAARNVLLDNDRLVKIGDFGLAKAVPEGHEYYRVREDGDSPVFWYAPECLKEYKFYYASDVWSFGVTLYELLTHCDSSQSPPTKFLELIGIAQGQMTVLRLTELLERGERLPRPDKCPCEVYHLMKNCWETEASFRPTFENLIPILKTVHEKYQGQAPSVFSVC

Structure (SMILES) | HT-29 (pIC50) [1] | JAK 3 (pKi) (JAK3) | JAK 2 (pKi) (JAK2) | Tyk 2 (pKi) (Tyk2) | JAK 1 (pKi) (JAK1) | IC50 [1] [nM] | Ki (JAK3) [nM] | Ki (Tyk2) [nM] | Ki (JAK1) [nM] | absorption at the portal vein (Fa %) [2] | Ki (JAK2) [nM] | pKi (JAK1)
COc1cc(Nc2cc(CO)[nH]n2)nc(N(C)[C@@H]2C[C@H]3CCC[C@@H](C2)N3S(=O)(=O)N2CCCC2)n1 [Example 1-13, (3-((6-methoxy-2-(methyl((1R,3s,5S)-9-(pyrrolidin-1-ylsulfonyl)-9-azabicyclo[3.3.1]nonan-3-yl)amino)pyrimidin-4-yl)amino)-1H-pyrazol-5-yl)methanol] | A (A represents a pIC50 value≥7.5 (IC50≤32 nM)) | B (B represents a pKi value between 9 and 10 (Ki between 1 nM and 0.1 nM)) | A (A represents a pKi value≥10 (Ki≤0.1 nM)) | B (B represents a pKi value between 9 and 10 (Ki between 1 nM and 0.1 nM)) | A (A represents a pKi value≥10 (Ki≤0.1 nM)) |  |  |  |  |  |  | 
COc1cc(Nc2cc(CO)[nH]n2)nc(N(C)[C@@H]2C[C@H]3CCC[C@@H](C2)N3S(=O)(=O)C2CC2)n1 [Example 1-14, (3-((2-(((1R,3s,5S)-9-(cyclopropylsulfonyl)-9-azabicyclo[3.3.1]nonan-3-yl)(methyl)amino)-6-methoxypyrimidin-4-yl)amino)-1H-pyrazol-5-yl)methanol] | A (A represents a pIC50 value≥7.5 (IC50≤32 nM)) | C (C represents a pKi value between 8 and 9 (Ki between 10 nM and 1 nM)) | A (A represents a pKi value≥10 (Ki≤0.1 nM)) | B (B represents a pKi value between 9 and 10 (Ki between 1 nM and 0.1 nM)) | B (B represents a pKi value between 9 and 10 (Ki between 1 nM and 0.1 nM)) |  |  |  |  |  |  | 
COc1cc(Nc2cc(CO)[nH]n2)nc(N(C)[C@@H]2C[C@H]3CCC[C@@H](C2)N3S(=O)(=O)c2cccnc2)n1 [Example 1-15, (3-((6-methoxy-2-(methyl((1R,3s,5S)-9-(pyridin-3-ylsulfonyl)-9-azabicyclo[3.3.1]nonan-3-yl)amino)pyrimidin-4-yl)amino)-1H-pyrazol-5-yl)methanol] | B (B represents a pIC50 value between 6.7 and 7.5 (IC50 between 200 nM and 32 nM)) | C (C represents a pKi value between 8 and 9 (Ki between 10 nM and 1 nM)) | A (A represents a pKi value≥10 (Ki≤0.1 nM)) | B (B represents a pKi value between 9 and 10 (Ki between 1 nM and 0.1 nM)) | B (B represents a pKi value between 9 and 10 (Ki between 1 nM and 0.1 nM)) |  |  |  |  |  |  | 
COc1cc(Nc2cc(CO)[nH]n2)nc(N(C)[C@@H]2C[C@H]3CCC[C@@H](C2)N3S(=O)(=O)c2ccccc2)n1 [Example 1-16, (3-((6-methoxy-2-(methyl((1R,3s,5S)-9-(phenylsulfonyl)-9-azabicyclo[3.3.1]nonan-3-yl)amino)pyrimidin-4-yl)amino)-1H-pyrazol-5-yl)methanol] | B (B represents a pIC50 value between 6.7 and 7.5 (IC50 between 200 nM and 32 nM)) | C (C represents a pKi value between 8 and 9 (Ki between 10 nM and 1 nM)) | B (B represents a pKi value between 9 and 10 (Ki between 1 nM and 0.1 nM)) | B (B represents a pKi value between 9 and 10 (Ki between 1 nM and 0.1 nM)) | B (B represents a pKi value between 9 and 10 (Ki between 1 nM and 0.1 nM)) |  |  |  |  |  |  | 
COc1cc(Nc2cc(CO)[nH]n2)nc(N(C)[C@@H]2C[C@H]3CCC[C@@H](C2)N3S(=O)(=O)N2CCC2)n1 [Example 1-17, (3-((2-(((1R,3s,5S)-9-(azetidin-1-ylsulfonyl)-9-azabicyclo[3.3.1]nonan-3-yl)(methyl)amino)-6-methoxypyrimidin-4-yl)amino)-1H-pyrazol-5-yl)methanol] | A (A represents a pIC50 value≥7.5 (IC50≤32 nM)) | C (C represents a pKi value between 8 and 9 (Ki between 10 nM and 1 nM)) | A (A represents a pKi value≥10 (Ki≤0.1 nM)) | B (B represents a pKi value between 9 and 10 (Ki between 1 nM and 0.1 nM)) | B (B represents a pKi value between 9 and 10 (Ki between 1 nM and 0.1 nM)) |  |  |  |  |  |  | 
COc1cc(Nc2cc(CO)[nH]n2)nc(N(C)[C@@H]2C[C@H]3CCC[C@@H](C2)N3S(C)(=O)=O)n1 [Example 3, (3-((6-methoxy-2-(methyl((1R,3s,5S)-9-(methylsulfonyl)-9-azabicyclo[3.3.1]nonan-3-yl)amino)pyrimidin-4-yl)amino)-1H-pyrazol-5-yl)methanol] |  |  | A (A represents a pKi value≥10 (Ki≤0.1 nM)) |  |  | 31.6 to 200 | 1 to 10 | 0.1 to 1 | 0.1 to 1 | greater than 40% |  | 
COc1cc(Nc2cc(CO)[nH]n2)nc(N(C)[C@@H]2C[C@H]3CC[C@@H](C2)N3CCC#N)n1 [Example 5, 3-((1R,3s,5S)-3-((4-((5-(hydroxymethyl)-1H-pyrazol-3-yl)amino)-6-methoxypyrimidin-2-yl)(methyl)amino)-8-azabicyclo[3.2.1]octan-8-yl)-propanenitrile] |  |  |  |  |  | 200 to 1000 | 10 to 31.6 | 1 to 10 |  |  | 0.1 to 1 | 9.00 to 10.00
COc1cc(Nc2cc(CO)[nH]n2)nc(N(C)[C@@H]2C[C@H]3CCC[C@@H](C2)N3Cc2cncc(C#N)c2)n1 [Example 7, 5-(((1R,3s,5S)-3-((4-((5-(hydroxymethyl)-1H-pyrazol-3-yl)amino)-6-methoxypyrimidin-2-yl)(methyl)amino)-9-azabicyclo[3.3.1]nonan-9-yl)methyl)nicotinonitrile] |  |  | A (A represents a pKi value≥10 (Ki≤0.1 nM)) |  | A (A represents a pKi value≥10 (Ki≤0.1 nM)) | 31.6 to 200 | 0.1 to 1 | 0.1 to 1 |  |  |  | 
COc1cc(Nc2cc(CO)[nH]n2)nc(N(C)[C@@H]2C[C@H]3CCC[C@@H](C2)N3C(=O)OCC(C)C)n1 [Example 8, Isobutyl (1R,3s,5S)-3-((4-((5-(hydroxymethyl)-1H-pyrazol-3-yl)amino)-6-methoxypyrimidin-2-yl)(methyl)amino)-9-azabicyclo[3.3.1]nonane-9-carboxylate] |  |  |  |  |  | 31.6 to 200 | 1 to 10 | 0.1 to 1 | 0.1 to 1 |  | 0.1 to 1 | 
COc1cc(Nc2cc(CO)[nH]n2)nc(N(C)[C@@H]2C[C@H]3CCC[C@@H](C2)N3C(=O)C(F)F)n1 [Example 9, 2,2-difluoro-1-((1R,3s,5S)-3-((4-((5-(hydroxymethyl)-1H-pyrazol-3-yl)amino)-6-methoxypyrimidin-2-yl)(methyl)amino)-9-azabicyclo[3.3.1]nonan-9-yl)ethan-1-one] |  |  |  |  |  |  | 10 to 31.6 | 0.1 to 1 | 0.1 to 1 |  | 0.1 to 1 | 
